{
  "source": "patent US20210000792A1",
  "about": "“METHODS FOR REDUCING OR PREVENTING CARDIOVASCULAR EVENTS IN PATIENTS WITH TYPE II DIABETES MELLITUS” (Janssen Pharmaceutica NV, priority 2017, published 2021)",
  "key": {"[1]": {"tested_on": "men and women with type 2 diabetes and history or high risk of cardiovascular disease", "test": "CANVAS Program: integrated CANVAS and CANVAS-R clinical trials, canagliflozin versus placebo", "type": "in vivo, human", "conditions": "for Cardiovascular mortality, hazard ratio (95% confidence interval) / Total (all-cause) mortality, hazard ratio (95% confidence interval): full integrated dataset; for Primary outcome (cardiovascular mortality, nonfatal myocardial infarction, or nonfatal stroke), hazard ratio (95% confidence interval): canagliflozin vs placebo; for Primary outcome (cardiovascular mortality, nonfatal myocardial infarction, or nonfatal stroke), events per 1000 patient-years: integrated database of CANVAS and CANVAS-R", "text": "(§1) Two clinical trials were completed to assess the cardiovascular safety and efficacy of canagliflozin, and how any potential benefits might balance against known risks. The complete protocols for said trials, name CANVAS and CANVAS-R, which protocols are each incorporated in their entirety herein, may be found on www.clinicaltrials.gov (more specifically at the following urls: https://clinicaltrials.gov/ct2/show/NCT01032629?term=canvas&rank=1 and https://clinicaltrials.gov/ct2/show/NCT01989754?term=canvas-r&rank=1, respectively).\n(§2) All potential participants completed a 2-week, single-blind, placebo run-in period. Randomization was done centrally through an interactive web response system using a computer-generated randomization schedule prepared by the study sponsor using randomly permuted blocks. Participants in CANVAS were randomly assigned in a 1:1:1 ratio to canagliflozin 300 mg, canagliflozin 100 mg, or matching placebo, and participants in CANVAS-R were randomly assigned in a 1:1 ratio to canagliflozin or matching placebo administered at an initial dose of 100 mg daily with optional up-titration to 300 mg from week 13. Participants and all study staff were masked to individual treatment allocations until the completion of the study. Use of other background therapy for glycemic management and other risk factor control was according to best practice instituted in line with local guidelines including Renin Angiotensin System (RAS) blockade.\n(§3) Post-randomization, face-to-face follow-up was scheduled for 3 visits in the first year and at 6-month intervals thereafter, with alternating telephone follow-up between face-to-face assessments. Every follow-up included inquiry about primary and secondary outcome events and serious adverse events. Urinary albumin:creatinine ratio was measured every 26 weeks in CANVAS-R, and at Week 12 and then annually in CANVAS. Serum creatinine measurement with estimation of glomerular filtration rate (eGFR) was performed at least every 26 weeks in both trials. Individuals that prematurely discontinued study treatment continued scheduled follow-up wherever possible, with extensive efforts made to obtain full outcome data for all during the final follow-up window that spanned November 2016 to February 2017.\n(§4) The primary outcome was a composite of cardiovascular mortality, nonfatal myocardial infarction, or nonfatal stroke. Secondary outcomes were total mortality; cardiovascular mortality; progression of albuminuria; and the composite of cardiovascular mortality and hospitalization for heart failure. Progression of albuminuria grade was defined as a more then 30% increase in albuminuria and a switch from either normoalbuminuria to microalbuminuria or macroalbuminuria, or from microalbuminuria to macroalbuminuria. In the event that sequential testing was not significant for all then remaining outcomes were scheduled for assessment as exploratory variables in the integrated dataset.\n(§5) Evaluation of total hospitalizations was also prespecified.\n(§6) All major cardiovascular events, renal outcomes and deaths, plus selected safety outcomes were ratified by Endpoint Adjudication Committees. Intermediate markers of cardiovascular risk and requirement for antihyperglycemic agents were assessed to help understand the observed effects on cardiovascular and renal outcomes. Analyses of safety were of adverse events coded using the latest version of the MedDRA Dictionary. For bone fracture, the primary prespecified analysis was for low-trauma fracture events but secondary analysis of all fractures was also done. Amputations were assessed overall but numbers of cases above and below the ankle were also reported.\n(§7) The primary hypothesis test was of noninferiority for the hazard ratio (HR) for the primary outcome at the margin of 1.3 for all canagliflozin versus placebo using the full integrated dataset and the intent to treat approach. […]"}, "[2]": {"tested_on": "men and women with type 2 diabetes and history or high risk of cardiovascular disease", "test": "CANVAS clinical trial, canagliflozin 300 mg or 100 mg versus placebo", "type": "in vivo, human", "conditions": "canagliflozin group", "text": "as §1, §2, §3, §4, §5, §6, §7"}, "[3]": {"conditions": "CANVAS Program, vs placebo, listed as canagliflozin"}, "[4]": {"conditions": "CANVAS Program, canagliflozin group"}, "[5]": {"conditions": "canagliflozin compared to placebo, combined trials n=10,142"}, "[6]": {"conditions": "integrated CANVAS and CANVAS-R, canagliflozin group"}, "[7]": {"conditions": "integrated database with removal of all study time and mortality events accrued prior to Nov. 20, 2012"}, "[8]": {"conditions": "integrated database with removal of all study time and mortality events accrued prior to Nov. 20, 2012, vs placebo"}},
  "data": [
    {"smiles": "Cc1ccc([C@@H]2O[C@H](CO)[C@@H](O)[C@H](O)[C@H]2O)cc1Cc1ccc(-c2ccc(F)cc2)s1", "note": "[Canagliflozin, canagliflozin]", "values": [
      {"measurement": "Cardiovascular mortality, hazard ratio (95% confidence interval)", "setting": "[1]; CANVAS Program, vs placebo", "result": "0.87 (0.72-1.06)"},
      {"measurement": "Total (all-cause) mortality, hazard ratio (95% confidence interval)", "setting": "[1]; CANVAS Program, vs placebo", "result": "0.87 (0.74-1.01)"},
      {"measurement": "Cardiovascular mortality, hazard ratio (95% confidence interval)", "setting": "[1]; [3]", "result": 0.87},
      {"measurement": "Total (all-cause) mortality, hazard ratio (95% confidence interval)", "setting": "[1]; [3]", "result": 0.87},
      {"measurement": "40% reduction in eGFR, RRT, or renal death, n/N", "setting": "[1]; [4]", "result": "124/5795"},
      {"measurement": "40% reduction in eGFR, RRT, renal death or macroalbuminuria, n/N", "setting": "[1]; [4]", "result": "404/5795"},
      {"measurement": "40% reduction in eGFR, RRT, renal or CV death, n/N", "setting": "[1]; [4]", "result": "379/5795"},
      {"measurement": "Cardiovascular mortality or hospitalization for heart failure, n/N", "setting": "[1]; [4]", "result": "364/5795"},
      {"measurement": "Cardiovascular mortality, n/N", "setting": "[1]; [4]", "result": "268/5795"},
      {"measurement": "Cardiovascular mortality, nonfatal myocardial infarction, or nonfatal stroke, n/N", "setting": "[1]; [4]", "result": "585/5795"},
      {"measurement": "Hospitalization for heart failure, n/N", "setting": "[1]; [4]", "result": "123/5795"},
      {"measurement": "Nonfatal myocardial infarction, n/N", "setting": "[1]; [4]", "result": "215/5795"},
      {"measurement": "Nonfatal stroke, n/N", "setting": "[1]; [4]", "result": "158/5795"},
      {"measurement": "Progression of albuminuria, n/N", "setting": "[1]; [4]", "result": "1341/5196"},
      {"measurement": "Regression of albuminuria, n/N", "setting": "[1]; [4]", "result": "885/1679"},
      {"measurement": "Total mortality, n/N", "setting": "[1]; [4]", "result": "400/5795"},
      {"measurement": "Primary outcome (cardiovascular mortality, nonfatal myocardial infarction, or nonfatal stroke), hazard ratio (95% confidence interval)", "setting": "[1]; CANVAS Program", "result": "0.86 (0.75-0.97)"},
      {"measurement": "Primary outcome (cardiovascular mortality, nonfatal myocardial infarction, or nonfatal stroke), hazard ratio (95% confidence interval)", "setting": "[1]; CANVAS Program, listed as canagliflozin", "result": 0.86},
      {"measurement": "40% reduction in eGFR, RRT, or renal death, hazard ratio (95% confidence interval)", "setting": "[1]; CANVAS Program, vs placebo", "result": "0.60 (0.47-0.77)"},
      {"measurement": "40% reduction in eGFR, RRT, renal death or macroalbuminuria, hazard ratio (95% confidence interval)", "setting": "[1]; CANVAS Program, vs placebo", "result": "0.57 (0.50-0.66)"},
      {"measurement": "40% reduction in eGFR, RRT, renal or CV death, hazard ratio (95% confidence interval)", "setting": "[1]; CANVAS Program, vs placebo", "result": "0.77 (0.66-0.89)"},
      {"measurement": "Cardiovascular mortality or hospitalization for heart failure, hazard ratio (95% confidence interval)", "setting": "[1]; CANVAS Program, vs placebo", "result": "0.78 (0.67-0.91)"},
      {"measurement": "Hospitalization for heart failure, hazard ratio (95% confidence interval)", "setting": "[1]; CANVAS Program, vs placebo", "result": "0.67 (0.52-0.87)"},
      {"measurement": "Nonfatal myocardial infarction, hazard ratio (95% confidence interval)", "setting": "[1]; CANVAS Program, vs placebo", "result": "0.85 (0.69-1.05)"},
      {"measurement": "Nonfatal stroke, hazard ratio (95% confidence interval)", "setting": "[1]; CANVAS Program, vs placebo", "result": "0.90 (0.71-1.15)"},
      {"measurement": "Progression of albuminuria, hazard ratio (95% confidence interval)", "setting": "[1]; CANVAS Program, vs placebo", "result": "0.73 (0.67-0.79)"},
      {"measurement": "Regression of albuminuria, hazard ratio (95% confidence interval)", "setting": "[1]; CANVAS Program, vs placebo", "result": "1.70 (1.51-1.91)"},
      {"measurement": "40% reduction in eGFR, RRT, or renal death, hazard ratio (95% confidence interval)", "setting": "[1]; [3]", "result": 0.60},
      {"measurement": "Progression of albuminuria, hazard ratio (95% confidence interval)", "setting": "[1]; [3]", "result": 0.73},
      {"measurement": "Use of other antihyperglycemic agents during follow-up, lower than placebo group", "setting": "[1]; canagliflozin compared to placebo group", "result": 9.3, "unit": "%"},
      {"measurement": "Mean difference in body weight", "setting": "[1]; [5]", "result": -1.60, "unit": "kg"},
      {"measurement": "Mean difference in glycated hemoglobin", "setting": "[1]; [5]", "result": "−0.58", "unit": "%"},
      {"measurement": "Mean difference in systolic blood pressure", "setting": "[1]; [5]", "result": "−3.93", "unit": "mmHg"},
      {"measurement": "Composite of sustained 40% reduction in eGFR, end-stage kidney disease or renal death, events per 1000 patient-years", "setting": "[1]; [6]", "result": "5.5 /1000 patient-years"},
      {"measurement": "Progression of albuminuria grade, events per 1000 patient-years", "setting": "[1]; [6]", "result": "89.4 /1000 patient-years"},
      {"measurement": "Primary outcome (cardiovascular mortality, nonfatal myocardial infarction, or nonfatal stroke), events per 1000 patient-years", "setting": "[1]; canagliflozin group", "result": 26.93, "unit": "per 1000 patient-years"},
      {"measurement": "Primary outcome (cardiovascular mortality, nonfatal myocardial infarction, or nonfatal stroke), events per 1000 patient-years", "setting": "[1]; canagliflozin group, listed as canagliflozin", "result": 26.9, "unit": "per 1000 patient-years"},
      {"measurement": "All-cause mortality, events per 1000 patient-years", "setting": "[1]; [7]", "result": 19.05, "unit": "per 1000 patient-years"},
      {"measurement": "Cardiovascular death, events per 1000 patient-years", "setting": "[1]; [7]", "result": 12.82, "unit": "per 1000 patient-years"},
      {"measurement": "All-cause mortality, hazard ratio (95% confidence interval)", "setting": "[1]; [8]", "result": "0.90 (0.76-1.07)"},
      {"measurement": "Cardiovascular death, hazard ratio (95% confidence interval)", "setting": "[1]; [8]", "result": "0.96 (0.77-1.18)"},
      {"measurement": "Primary outcome hazard ratio when imputation for missing events was performed", "setting": "[1]; multiple imputation for missing data, vs placebo", "result": 0.85},
      {"measurement": "40% reduction in eGFR, RRT, or renal death, n/N", "setting": "[2]", "result": "91/2888"},
      {"measurement": "40% reduction in eGFR, RRT, renal death or macroalbuminuria, n/N", "setting": "[2]", "result": "292/2888"},
      {"measurement": "40% reduction in eGFR, RRT, renal or CV death, n/N", "setting": "[2]", "result": "286/2888"},
      {"measurement": "Cardiovascular mortality or hospitalization for heart failure, n/N", "setting": "[2]", "result": "269/2888"},
      {"measurement": "Cardiovascular mortality, n/N", "setting": "[2]", "result": "207/2888"}
    ]}
  ]
}
